In US10927096B2, “Ester substituted ion channel blockers and methods for use” (Nocion Therapeutics, Inc., priority 2019, dated 2021):
Blank lines part the entries; values can stand above or below the compound they belong to.

Key:
[1] = target: T1, NaV1.7 (Homo sapiens, UniProt Q15858); assay: Whole cell patch clamp, external block of NaV1.7 current; assay type: cell-based; conditions: % inhibition, compound in external solution, manual whole cell patch clamp, read-out: Nav1.7 Extracellular Inhibition; for inhibition at 3 µM: test concentration 3 μM; for inhibition at 1 µM: test concentration 1 μM; for inhibition at 100 µM: test concentration 100 μM; for inhibition at 10 µM: test concentration 10 μM; for inhibition at 30 µM: test concentration 30 μM
T1 construct: expressed in transfected cells; host or cells: HEK293, tetracycline-inducible
T1 sequence (Q15858 whole entry): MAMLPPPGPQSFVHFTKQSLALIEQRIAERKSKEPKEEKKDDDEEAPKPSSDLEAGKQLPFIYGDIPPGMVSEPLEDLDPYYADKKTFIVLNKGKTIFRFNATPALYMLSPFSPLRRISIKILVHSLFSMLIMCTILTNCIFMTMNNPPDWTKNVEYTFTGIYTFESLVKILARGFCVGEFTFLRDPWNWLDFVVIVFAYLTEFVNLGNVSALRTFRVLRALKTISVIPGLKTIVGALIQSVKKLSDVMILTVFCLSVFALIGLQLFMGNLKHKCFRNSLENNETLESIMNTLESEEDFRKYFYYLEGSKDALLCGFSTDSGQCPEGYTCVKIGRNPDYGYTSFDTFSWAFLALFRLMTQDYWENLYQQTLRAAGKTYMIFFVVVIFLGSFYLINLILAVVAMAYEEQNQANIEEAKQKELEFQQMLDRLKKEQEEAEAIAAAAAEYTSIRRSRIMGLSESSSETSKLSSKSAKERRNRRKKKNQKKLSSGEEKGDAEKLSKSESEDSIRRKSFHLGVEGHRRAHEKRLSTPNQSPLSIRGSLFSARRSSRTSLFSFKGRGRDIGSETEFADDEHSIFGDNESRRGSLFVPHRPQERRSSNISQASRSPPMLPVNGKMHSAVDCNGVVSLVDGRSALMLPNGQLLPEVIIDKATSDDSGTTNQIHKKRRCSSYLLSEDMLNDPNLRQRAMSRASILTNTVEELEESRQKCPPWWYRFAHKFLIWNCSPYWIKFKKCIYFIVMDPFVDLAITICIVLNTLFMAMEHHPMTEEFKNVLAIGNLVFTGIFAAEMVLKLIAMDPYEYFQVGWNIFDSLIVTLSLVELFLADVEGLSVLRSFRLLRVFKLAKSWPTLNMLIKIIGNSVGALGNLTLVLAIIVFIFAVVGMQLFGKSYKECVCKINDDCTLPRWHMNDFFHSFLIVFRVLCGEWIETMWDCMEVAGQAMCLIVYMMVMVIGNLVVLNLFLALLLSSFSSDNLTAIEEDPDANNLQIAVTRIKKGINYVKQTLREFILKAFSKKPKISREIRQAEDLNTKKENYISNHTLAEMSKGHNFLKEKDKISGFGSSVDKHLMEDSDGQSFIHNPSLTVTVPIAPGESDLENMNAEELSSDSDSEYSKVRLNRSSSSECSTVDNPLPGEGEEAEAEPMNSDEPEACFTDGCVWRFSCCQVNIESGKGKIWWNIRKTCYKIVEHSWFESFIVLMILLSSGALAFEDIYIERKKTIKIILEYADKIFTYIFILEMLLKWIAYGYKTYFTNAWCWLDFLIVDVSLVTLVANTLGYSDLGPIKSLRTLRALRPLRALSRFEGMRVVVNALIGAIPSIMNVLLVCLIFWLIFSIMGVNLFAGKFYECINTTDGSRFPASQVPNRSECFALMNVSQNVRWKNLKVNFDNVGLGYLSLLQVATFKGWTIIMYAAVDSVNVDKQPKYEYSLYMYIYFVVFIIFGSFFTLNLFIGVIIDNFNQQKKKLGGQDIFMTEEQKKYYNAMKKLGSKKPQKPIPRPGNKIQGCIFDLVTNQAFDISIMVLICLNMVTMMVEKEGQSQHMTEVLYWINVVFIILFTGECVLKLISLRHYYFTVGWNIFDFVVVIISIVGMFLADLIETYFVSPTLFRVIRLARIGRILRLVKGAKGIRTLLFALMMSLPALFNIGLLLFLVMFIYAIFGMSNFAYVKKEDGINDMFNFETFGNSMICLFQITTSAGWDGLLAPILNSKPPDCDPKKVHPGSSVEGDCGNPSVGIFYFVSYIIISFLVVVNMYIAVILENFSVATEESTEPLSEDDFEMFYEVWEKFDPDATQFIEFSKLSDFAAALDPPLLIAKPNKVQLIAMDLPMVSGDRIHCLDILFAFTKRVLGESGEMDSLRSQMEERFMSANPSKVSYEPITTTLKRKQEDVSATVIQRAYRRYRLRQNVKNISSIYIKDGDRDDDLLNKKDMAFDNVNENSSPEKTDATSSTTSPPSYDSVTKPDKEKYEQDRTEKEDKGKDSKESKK
Protocol: (§1) NaV1.7 was expressed upon induction with tetracycline. Cells were cultured in DMEM containing 10% dialyzed Fetal Bovine Serum (VWR, Radnor, Pa.), 1% Glutamax (VWR, Radnor, Pa.), 1% Penicillin-Streptomycin (VWR, Radnor, Pa.), 100 mg/L Hygromycin (Thermo Fisher Scientific, Waltham, Mass. and 5 mg/L Blasticidin (Alfa Aesar, Haverhill, Mass.). Cells were grown and maintained at 37° C. in a humidified environment containing 10% C02 in air. Cells were detached from the culture flask for passage and harvested using 0.05% Trypsin-EDTA (Thermo Fisher Scientific, Waltham, Mass.). To induce NaV1.7, cells were induced with tetracycline (0.1-1 μg/mL, IBI Scientific, Peosta, Iowa) the day before recording and plated onto 24-well plates. Cells were washed with DPBS (VWR, Radnor, Pa.), trypsinized and then triturated five times in 10 mL of growth media to break apart cell aggregates. For one 24-well plate, 2 mL of cell suspension was mixed with 23 mL of fresh growth media and 0.1-1 μg/mL tetracycline added. 1 ml of mixed media with cells was then added to each well of a 24-well plate, with a 12 mm coverslip already placed in the bottom of the well. Cells were then incubated in 37° C. and 10% CO2 overnight.
(§2) The intracellular solution contained the following (in mM) CsCl 135, NaCl 10, EGTA 10, HEPES 10, MgCl2 2, adjusted to pH 7.2 with CsOH. The external solution was a normal Ringer solution containing (in mM) NaCl 155, HEPES 10, glucose 10, KCl 3.5, CaCl2 1.5, MgCl2 1 adjusted to pH 7.4 with NaOH. CsCl is from Alfa Aesar, Haverhill, Mass. All other chemicals are from Sigma-Aldrich, St. Louis, Mo. In order to test the degree of internal block by test compounds the compounds were dissolved in internal solution at the indicated test concentration. […] In order to test the degree of external block by test compounds the compounds were dissolved in external solution at the indicated test concentration.
(§3) 18-24 hours after cells were induced with tetracycline, coverslips were placed into a chamber filled with Normal Ringer solution at room temperature and the chamber placed on a microscope. Pipettes were pulled from borosilicate glass on a P97 puller (Sutter Instrument, Novato, Calif.) and polished with a MF-830 Microforge (Narishige International USA, Inc, Amityville, N.Y.) to have a resistance of 1.5-2.5 MΩ when filled with CsCl internal solution at room temperature. Healthy cells (those that are round and translucent with no visible blemishes) were chosen for seal formation. A seal was formed between the pipette and the cell, and a brief pulse of suction was used to “break in” and establish the whole-cell configuration. The membrane potential was held at −100 mV before the voltage protocol began. Only cells with series resistance between 1.5-5 MΩ were retained for analysis. The voltage protocol was as follows: Cells were held at −100 mV for 12 ms followed by a hyperpolarizing step to −105 mV for 12 ms to monitor the leak. Cells were then stepped back to −100 mV for 40 ms. Cells were then depolarized to −20 mV for 10 ms and then returned to −100 mV for 26 ms (The FIGURE).
Once the recording was started, the voltage protocol was run at 30 second intervals for 5 minutes to get a stable baseline. This is followed by 5 Hz stimulation of the same voltage protocol run until the end of experiment. […] The test compound is added for 5 minutes before washing out with normal Ringer's solution. Currents were recorded using PatchMaster software with Heka EPC10 (HEKA Electronics, Lambrecht, Germany). Only cells with inward current amplitudes at −20 mV between 400 pA and 4 nA were accepted. In addition, cells having leak currents greater than 10% of their current amplitudes were discarded.
(§4) The data was plotted using the Patchmaster software (HEKA Electronics, Lambrecht, Germany) and analyzed by plotting the minimum current during the voltage step to −20 mV (peak inward current) as a function of time. […]

[2] = PAMPA membrane permeability assay; assay type: physicochemical; conditions: pH 7.4 buffer, GIT lipid, 4 hours incubation
Protocol: The PAMPA assay (pION, Inc., Woburn Mass.) was used to determine the ability of compounds of the invention to cross an artificial lipid membrane by passive diffusion. Test compounds were dissolved in DMSO (10 mM) and diluted 200-fold in buffer (pION Inc., pH 7.4) to provide 50 uM stock solutions. Buffer (150 μL) was added to a UV blank plate and stock solutions (150 μL) were transferred to a UV reference plate. The blank and reference spectrum were read using a spectrophotometer. Stock solutions (200 μL) were added to the donor plate of the PAMPA sandwich plate and an accept plate painted with GIT lipid (pION Inc, 5 μL) was placed on top. Buffer (200 μL) was added to the acceptor plate and the PAMPA sandwich plate was incubated for 4 hours. Aliquots (150 μL) from the acceptor plate were added to a UV plate and read as acceptor spectrum. Aliquots (150 μL) of the donor solutions were added to a UV analysis plate and read as donor spectrum. The permeability coefficient of test compounds was calculated using PAMPA Explorer™ software (version 3.5.0.4) based on the AUC of the reference plate, the donor plate, and the acceptor plate.
The PAMPA permeability results (10^−6 cm/s) of representative compounds are reported as “+” (<0.1 10^−6 cm/s), “++” (0.1-2.0 10^−6 cm/s), “+++” (2.0-10.010^−6 cm/s) or “++++” (>10.0 10^−6 cm/s).

[3] = target: T1, NaV1.7; assay: Whole cell patch clamp, internal block of NaV1.7 current; assay type: cell-based; conditions: % inhibition at 1 μM test concentration, compound in internal solution, manual whole cell patch clamp
Protocol: as §1, §2, §3
Once the recording was started, the voltage protocol was run at 30 second intervals for 5 minutes to get a stable baseline. This was followed by four 30-second periods of 5 Hz stimulation of the same voltage protocol separated by 1 minute of rest which was then followed by 0.33 Hz stimulation after the last train. Currents were recorded using PatchMaster software with Heka EPC10 (HEKA Electronics, Lambrecht, Germany). Only cells with inward current amplitudes at −20 mV between 400 pA and 4 nA were accepted. In addition, cells having leak currents greater than 10% of their current amplitudes were discarded.
as §4

SMILES: COC(=O)c1cccc(C)c1NC(=O)C[N+]1(Cc2ccccc2)CCCCCC1 [Compound 1A, 1-benzyl-1-(2-((2-(methoxycarbonyl)-6-methylphenyl)amino)-2-oxoethyl)azepan-1-ium Bromide]
inhibition at 3 µM [1]: < 40%

SMILES: CCOC(=O)c1cccc(C)c1NC(=O)C[N+]1(Cc2ccccc2)CCCCCC1 [Compound 2A]
inhibition at 1 µM [1]: < 40%

SMILES: COC(=O)c1cccc(C)c1NC(=O)C[N+]1(Cc2ccccc2)CCCCC1 [Compound 3A]
inhibition at 100 µM [1]: 40 to 70%

SMILES: CCOC(=O)c1cccc(C)c1NC(=O)C[N+]1(Cc2ccccc2)CCCCC1 [Compound 4A]
inhibition at 3 µM [1]: < 40%

SMILES: CCOC(=O)c1cccc(C)c1NC(=O)C[N+]1(Cc2ccccc2)CCCC1 [Compound 9A]
inhibition at 10 µM [1]: < 40%

SMILES: CCOC(=O)c1cccc(C)c1NC(=O)C[N+]1(Cc2ccccc2)CCCCCCC1 [Compound 10A]
inhibition at 1 µM [1]: 40 to 70%

Further lines, results first:

inhibition at 30 µM [1]: 40 to 70%
SMILES: CCOC(=O)C1CCC[N+](CC(=O)Nc2c(C)cccc2C(=O)OC)(Cc2ccccc2)C1 (stereo not shown) [Compound 16A]

PAMPA (10^−6 cm/s) [2]: + (<0.1 10^−6 cm/s)
NaV1.7 Intracellular Inhibition [3]: + (<30%)
SMILES: CCNC(=O)C1CCC[N+](CC)(CC(=O)Nc2c(C)cccc2C(=O)OC)C1.O=C[O-] (stereo not shown) [Compound 49]

inhibition at 10 µM [1]: < 40%
SMILES: CNC(=O)C[N+]1(CC(=O)Nc2c(C)cccc2C(=O)OC)CCCC(c2ccccc2)C1 (stereo not shown) [Compound 59A, 1-(2-((2-(methoxycarbonyl)-6-methylphenyl)amino)-2-oxoethyl)-1-(2-(methylamino)-2-oxoethyl)-3-phenylpiperidin-1-ium Bromide]

inhibition at 100 µM [1]: 40 to 70%
SMILES: COC(=O)c1cccc(C)c1NC(=O)C[N+]1(CC(N)=O)CCCC(c2ccccc2)C1 (stereo not shown) [Compound 61A]

inhibition at 10 µM [1]: 40 to 70%
SMILES: CC[N+]1(CC(=O)Nc2c(C)cccc2C(=O)OC)CCCC(c2ccccc2)C1 (stereo not shown) [Compound 65A]

inhibition at 30 µM [1]: 40 to 70%
SMILES: COC(=O)c1cccc(C)c1NC(=O)C[n+]1cccc(-c2ccccc2)c1 [Compound 66A, 1-(2-((2-(methoxycarbonyl)-6-methylphenyl)amino)-2-oxoethyl)-3-phenylpyridin-1-ium Bromide]

inhibition at 10 µM [1]: < 40%
SMILES: CCOC(=O)c1cccc(C)c1NC(=O)C[n+]1cccc(-c2ccccc2)c1 [Compound 67A]

PAMPA (10^−6 cm/s) [2]: + (<0.1 10^−6 cm/s)
NaV1.7 Intracellular Inhibition [3]: ++ (70-30%)
SMILES: CCOC(=O)c1cccc(C)c1NC(=O)C[n+]1cccn1C1CCCCC1.[Br-] [Compound 70]
